Source: article PMC10094297, “The Attenuation of Insulin/IGF-1 Signaling Pathway Plays a Crucial Role in the Myo-Inositol-Alleviated Aging in Caenorhabditis elegans” (International Journal of Molecular Sciences, 2023)

How the values were obtained:
[1] = target: T1, PI3K p110α (Homo sapiens, UniProt P42336); assay: PI3 Kinase Activity/Inhibitor Assay Kit (Millipore […]-493), competitive biotinylated-PIP3/GRP1 ELISA, PIP2 substrate; assay type: biochemical
T1 construct: gene PIK3CA

[2] = target: T2, PI3K p110β (Homo sapiens, UniProt P42338); assay: as above; assay type: biochemical
T2 construct: gene PIK3CB
T2 sequence (P42338 whole entry): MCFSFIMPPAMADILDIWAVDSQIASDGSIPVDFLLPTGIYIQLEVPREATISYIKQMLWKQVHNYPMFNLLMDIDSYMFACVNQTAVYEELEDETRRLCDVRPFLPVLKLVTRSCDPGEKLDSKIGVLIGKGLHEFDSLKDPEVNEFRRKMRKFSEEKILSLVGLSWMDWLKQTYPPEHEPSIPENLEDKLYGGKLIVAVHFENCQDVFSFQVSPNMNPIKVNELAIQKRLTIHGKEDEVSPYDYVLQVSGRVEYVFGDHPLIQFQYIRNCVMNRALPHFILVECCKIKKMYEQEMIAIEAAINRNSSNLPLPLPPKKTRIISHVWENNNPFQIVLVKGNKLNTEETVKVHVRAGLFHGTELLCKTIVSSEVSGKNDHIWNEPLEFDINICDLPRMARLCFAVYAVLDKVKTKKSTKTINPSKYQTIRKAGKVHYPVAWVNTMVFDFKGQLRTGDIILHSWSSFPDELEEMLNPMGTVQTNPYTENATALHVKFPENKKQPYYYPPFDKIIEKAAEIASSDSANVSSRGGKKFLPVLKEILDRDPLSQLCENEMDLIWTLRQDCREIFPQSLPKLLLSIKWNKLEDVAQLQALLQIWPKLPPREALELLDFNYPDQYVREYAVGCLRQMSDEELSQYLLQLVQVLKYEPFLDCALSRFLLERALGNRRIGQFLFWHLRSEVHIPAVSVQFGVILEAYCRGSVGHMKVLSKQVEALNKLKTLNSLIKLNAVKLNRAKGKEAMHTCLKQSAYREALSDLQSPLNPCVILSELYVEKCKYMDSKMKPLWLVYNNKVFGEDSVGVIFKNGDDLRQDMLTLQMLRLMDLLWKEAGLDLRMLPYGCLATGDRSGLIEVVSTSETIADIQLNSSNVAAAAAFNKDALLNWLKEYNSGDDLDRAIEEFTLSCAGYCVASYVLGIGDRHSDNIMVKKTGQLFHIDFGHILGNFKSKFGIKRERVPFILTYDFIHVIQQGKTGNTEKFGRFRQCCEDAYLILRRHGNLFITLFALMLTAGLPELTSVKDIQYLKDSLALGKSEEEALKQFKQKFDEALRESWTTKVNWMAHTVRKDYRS

T1 sequence (P42336 whole entry): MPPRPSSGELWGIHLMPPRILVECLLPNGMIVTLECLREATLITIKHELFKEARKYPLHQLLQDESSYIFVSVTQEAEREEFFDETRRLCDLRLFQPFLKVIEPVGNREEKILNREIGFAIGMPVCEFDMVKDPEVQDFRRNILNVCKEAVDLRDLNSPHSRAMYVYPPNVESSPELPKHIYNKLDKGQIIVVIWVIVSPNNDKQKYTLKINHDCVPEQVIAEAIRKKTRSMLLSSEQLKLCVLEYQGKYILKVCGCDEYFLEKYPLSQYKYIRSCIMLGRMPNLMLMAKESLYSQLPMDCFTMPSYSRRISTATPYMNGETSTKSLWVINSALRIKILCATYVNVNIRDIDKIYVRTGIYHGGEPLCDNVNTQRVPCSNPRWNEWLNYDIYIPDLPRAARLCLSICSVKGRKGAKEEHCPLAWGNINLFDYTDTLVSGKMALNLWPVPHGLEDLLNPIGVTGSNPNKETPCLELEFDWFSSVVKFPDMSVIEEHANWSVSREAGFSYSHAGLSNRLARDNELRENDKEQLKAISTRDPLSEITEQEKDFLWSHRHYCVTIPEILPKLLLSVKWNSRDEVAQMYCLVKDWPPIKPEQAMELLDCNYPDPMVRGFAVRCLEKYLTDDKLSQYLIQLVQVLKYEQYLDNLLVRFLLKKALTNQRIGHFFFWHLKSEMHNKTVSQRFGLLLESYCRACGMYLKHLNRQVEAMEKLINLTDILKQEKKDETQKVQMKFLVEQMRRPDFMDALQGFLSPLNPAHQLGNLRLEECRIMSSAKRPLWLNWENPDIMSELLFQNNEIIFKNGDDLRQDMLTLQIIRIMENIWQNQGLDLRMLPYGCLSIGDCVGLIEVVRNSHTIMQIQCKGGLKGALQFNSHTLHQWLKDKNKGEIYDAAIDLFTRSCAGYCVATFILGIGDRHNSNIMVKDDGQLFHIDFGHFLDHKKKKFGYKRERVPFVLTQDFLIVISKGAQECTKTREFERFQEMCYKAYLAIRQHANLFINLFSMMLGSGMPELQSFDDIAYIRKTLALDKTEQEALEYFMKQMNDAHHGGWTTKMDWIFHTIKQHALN

O[C@H]1[C@H](O)[C@@H](O)[C@H](O)[C@@H](O)[C@H]1O [MI, Myo-inositol]
IC50 [1]: 90.2 µM
IC50 [2]: 21.7 µM
